PubChem BioAssay AID248 (DTP/NCI, 2004)
Several values for one entry are separate records, joined by “and”; a condition that tells them apart may be missing. Equal entries are not always repeated. Inconclusive results and toxic doses are left out. Cut-off read from the data, not from the text of the source: active = T/C of 150% or more; inactive = T/C below 125%.

Tested on: L1210 leukemia ip in BDF1 mice, survival T/C
Test: NCI In Vivo Anticancer Drug Screen. Data for tumor model L1210 Leukemia (intraperitoneal) in B6D2F1 (BDF1) mice
Conditions: endpoint: mean survival time, higher = longer survival
Procedure, shortened: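 Transplanted-tumor mice were given test agent; controls received vehicle only. Survival readings from the two groups were divided (treated over control).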

[1] = dose: 50.0 mg/kg/injection, schedule: Q01DX009 (ip), vehicle: saline
[2] = dose: 50.0 mg/kg/injection, schedule: Q04DX002 (ip), vehicle: saline
[3] = dose: 100.0 mg/kg/injection, schedule: Q04DX002 (ip), vehicle: saline
[4] = dose: 100.0 mg/kg/injection, schedule: Q01DX001 (ip), vehicle: other
[5] = dose: 200.0 mg/kg/injection, schedule: Q01DX001 (ip), vehicle: other
[6] = dose: 400.0 mg/kg/injection, schedule: Q01DX001 (ip), vehicle: other
[7] = dose: 100.0 mg/kg/injection, schedule: Q01DX009 (ip), vehicle: saline
[8] = dose: 100.0 mg/kg/injection, schedule: Q04DX003 (ip), vehicle: saline
[9] = dose: 200.0 mg/kg/injection, schedule: Q01DX009 (ip), vehicle: saline
[10] = dose: 200.0 mg/kg/injection, schedule: Q04DX003 (ip), vehicle: saline
[11] = dose: 100.0 mg/kg/injection, schedule: Q04DX003 (ip), vehicle: acetone
[12] = dose: 100.0 mg/kg/injection, schedule: Q01DX009 (ip), vehicle: Klucel (hydroxypropylcellulose) (HPC)
[13] = dose: 100.0 mg/kg/injection, schedule: Q04DX003 (ip), vehicle: Klucel (hydroxypropylcellulose) (HPC)
[14] = dose: 200.0 mg/kg/injection, schedule: Q01DX009 (ip), vehicle: Klucel (hydroxypropylcellulose) (HPC)

Measured: T/C

C1CC2CCC[N+]3=C2C(C1)CCC3 (stereo not drawn)
inactive: dose: 12.0 mg/kg/injection, schedule: Q04DX003 (ip), vehicle: saline 93 % of control | dose: 12.5 mg/kg/injection, schedule: Q01DX009 (ip), vehicle: saline 97 % of control | dose: 25.0 mg/kg/injection, schedule: Q01DX009 (ip), vehicle: saline 101 % of control | dose: 25.0 mg/kg/injection, schedule: Q04DX003 (ip), vehicle: saline 91 % of control | [1] 101 % of control | dose: 50.0 mg/kg/injection, schedule: Q04DX003 (ip), vehicle: saline 101 % of control

OC(COc1ccccc1)CC(O)(C(F)(F)F)C(F)(F)F (stereo not drawn)
inactive: dose: 75.0 mg/kg/injection, schedule: Q01DX009 (ip), vehicle: saline with Tween-80 92 % of control | dose: 150.0 mg/kg/injection, schedule: Q01DX009 (ip), vehicle: saline with Tween-80 89 % of control | dose: 300.0 mg/kg/injection, schedule: Q01DX009 (ip), vehicle: saline with Tween-80 103 % of control

c1cc(CCCc2ccncc2)ccn1
inactive: dose: 25.0 mg/kg/injection, schedule: Q04DX002 (ip), vehicle: saline 108 % of control | [2] 95 % of control | [3] 95 % of control

CNC(=O)Oc1ccc(N=Nc2ccccc2)cc1
inactive: [4] 96 % of control | [5] 96 % of control | [6] 96 % of control

CCOC(=O)C1OC1(C)c1ccccc1 (stereo not drawn)
inactive: [7] 102 % of control | [8] 100 % of control | [9] 100 % of control | [10] 94 % of control | dose: 400.0 mg/kg/injection, schedule: Q01DX009 (ip), vehicle: saline 102 % of control | dose: 400.0 mg/kg/injection, schedule: Q04DX003 (ip), vehicle: saline 107 % of control

Cc1cc(C)c(S(=O)(=O)Cc2cc(Cl)cc(Cl)c2O)c(C)c1
inactive: [1] 86 % of control | dose: 50.0 mg/kg/injection, schedule: Q04DX003 (ip), vehicle: acetone 93 % of control | dose: 100.0 mg/kg/injection, schedule: Q01DX001 (ip), vehicle: saline 88 % of control | [7] 105 % of control | [11] 89 % of control | dose: 200.0 mg/kg/injection, schedule: Q01DX001 (ip), vehicle: saline 87 % of control | [9] 91 % of control | dose: 200.0 mg/kg/injection, schedule: Q04DX003 (ip), vehicle: acetone 91 % of control

CS(=O)(=O)OC/C(Br)=C/Br
inactive: dose: 100.0 mg/kg/injection, schedule: Q01DX001 (ip), vehicle: carboxymethylcellulose (CMC) 103 % of control | dose: 200.0 mg/kg/injection, schedule: Q01DX001 (ip), vehicle: carboxymethylcellulose (CMC) 101 % of control

CC(C)NCC(O)c1ccc(O)c(O)c1 (stereo not drawn)
inactive: [1] 103 % of control | dose: 75.0 mg/kg/injection, schedule: Q01DX001 (ip), vehicle: saline 105 % of control | [12] 108 % of control and 111 % of control | [7] 110 % of control | [13] 104 % of control | dose: 150.0 mg/kg/injection, schedule: Q01DX001 (ip), vehicle: saline 100 % of control | [14] 113 % of control | [9] 114 % of control | dose: 200.0 mg/kg/injection, schedule: Q04DX003 (ip), vehicle: Klucel (hydroxypropylcellulose) (HPC) 100 % of control | dose: 300.0 mg/kg/injection, schedule: Q01DX001 (ip), vehicle: saline 123 % of control | dose: 400.0 mg/kg/injection, schedule: Q04DX003 (ip), vehicle: Klucel (hydroxypropylcellulose) (HPC) 100 % of control

CCCCCCOC(=O)C(N)Cc1ccc(OC)c(N(CCCl)CCCl)c1 (stereo not drawn)
inactive: dose: 12.5 mg/kg/injection, schedule: Q01DX001 (ip), vehicle: saline 93 % of control | dose: 15.0 mg/kg/injection, schedule: Q01DX001 (ip), vehicle: saline 94 % of control

c1ccc(CNCC2c3[nH]c4ccccc4c3CN2C2CCCCC2)cc1 (stereo not drawn)
inactive: dose: 75.0 mg/kg/injection, schedule: Q01DX001 (ip), vehicle: carboxymethylcellulose (CMC) 102 % of control | dose: 150.0 mg/kg/injection, schedule: Q01DX001 (ip), vehicle: carboxymethylcellulose (CMC) 90 % of control | dose: 300.0 mg/kg/injection, schedule: Q01DX001 (ip), vehicle: carboxymethylcellulose (CMC) 91 % of control

Cc1ccc2c(c1)CCCN2C
inactive: [1] 96 % of control | [7] 95 % of control | [8] 100 % of control | [10] 94 % of control

CN1C(C)(C)CC(O)(C(O)(c2ccccc2)c2ccccc2)CC1(C)C
inactive: [11] 98 % of control

Cc1cc(CC(C)C)c(C(N)=O)cc1C
inactive: [4] 108 % of control | [5] 105 % of control | [6] 103 % of control

CC(=O)Nc1ccc2cnn(C(C)=O)c2c1
inactive: dose: 50.0 mg/kg/injection, schedule: Q01DX009 (ip), vehicle: water 94 % of control | dose: 100.0 mg/kg/injection, schedule: Q01DX009 (ip), vehicle: water 98 % of control | dose: 100.0 mg/kg/injection, schedule: Q04DX003 (ip), vehicle: water 104 % of control | dose: 200.0 mg/kg/injection, schedule: Q01DX009 (ip), vehicle: water 100 % of control | dose: 200.0 mg/kg/injection, schedule: Q04DX003 (ip), vehicle: water 94 % of control | dose: 400.0 mg/kg/injection, schedule: Q04DX003 (ip), vehicle: water 106 % of control

COC(=O)C(C#N)Cc1ccccc1Cl (stereo not drawn)
inactive: dose: 100.0 mg/kg/injection, schedule: Q04DX003 (ip), vehicle: saline with Tween-80 90 % of control | dose: 200.0 mg/kg/injection, schedule: Q04DX003 (ip), vehicle: saline with Tween-80 96 % of control | dose: 400.0 mg/kg/injection, schedule: Q04DX003 (ip), vehicle: saline with Tween-80 98 % of control

CN(C)c1ccc(N=Nc2ccc3c(c2)C(=O)c2ccccc2C3=O)cc1
inactive: dose: 100.0 mg/kg/injection, schedule: Q01DX009 (ip), vehicle: other 104 % of control | dose: 200.0 mg/kg/injection, schedule: Q01DX009 (ip), vehicle: other 105 % of control | dose: 400.0 mg/kg/injection, schedule: Q01DX009 (ip), vehicle: other 98 % of control

CN(C)CC1CCC(CN(C)C)C1=O (stereo not drawn)
inactive: dose: 9.38 mg/kg/injection, schedule: Q01DX001 (ip), vehicle: other 106 % of control | dose: 9.38 mg/kg/injection, schedule: Q01DX001 (ip), vehicle: saline 104 % of control | dose: 18.75 mg/kg/injection, schedule: Q01DX001 (ip), vehicle: other 101 % of control | dose: 18.75 mg/kg/injection, schedule: Q01DX001 (ip), vehicle: saline 103 % of control | dose: 37.5 mg/kg/injection, schedule: Q01DX001 (ip), vehicle: other 115 % of control

CNC(=O)C(C)NC(C)=O (stereo not drawn)
inactive: [2] 99 % of control | [3] 102 % of control | dose: 200.0 mg/kg/injection, schedule: Q04DX002 (ip), vehicle: saline 105 % of control

Cc1ccccc1/C(=C/c1ccc([N+](=O)[O-])cc1)C(=O)O
inactive: [12] 95 % of control | [14] 108 % of control | dose: 400.0 mg/kg/injection, schedule: Q01DX009 (ip), vehicle: Klucel (hydroxypropylcellulose) (HPC) 104 % of control

CNC(=O)OCC1=CC(=O)C=C(OC)C1=O
inactive: dose: 6.25 mg/kg/injection, schedule: Q01DX009 (ip), vehicle: gum acacia 90 % of control | dose: 12.5 mg/kg/injection, schedule: Q04DX003 (ip), vehicle: gum acacia 94 % of control | dose: 25.0 mg/kg/injection, schedule: Q04DX003 (ip), vehicle: gum acacia 101 % of control

Cc1ccc2[nH]c3c(c2c1)C[P+](Cc1cccc2ccccc12)(c1ccccc1)CC3 (stereo not drawn)
inactive: dose: 25.0 mg/kg/injection, schedule: Q01DX001 (ip), vehicle: Klucel (hydroxypropylcellulose) (HPC) 87 % of control | dose: 25.0 mg/kg/injection, schedule: Q04DX003 (ip), vehicle: Klucel (hydroxypropylcellulose) (HPC) 91 % of control | dose: 50.0 mg/kg/injection, schedule: Q01DX001 (ip), vehicle: Klucel (hydroxypropylcellulose) (HPC) 92 % of control | dose: 50.0 mg/kg/injection, schedule: Q04DX003 (ip), vehicle: Klucel (hydroxypropylcellulose) (HPC) 105 % of control | dose: 100.0 mg/kg/injection, schedule: Q01DX001 (ip), vehicle: Klucel (hydroxypropylcellulose) (HPC) 112 % of control and 86 % of control | [13] 99 % of control | dose: 200.0 mg/kg/injection, schedule: Q01DX001 (ip), vehicle: Klucel (hydroxypropylcellulose) (HPC) 95 % of control
